Assay results: patent US12692237B2, “Continuous method for preparing tricyanoimidazole” (UCHICAGO ARGONNE, LLC, priority 2022, dated 2026)

Legend:
[1] = Solvent screening: solubility of DCI-NH2 slurried in acetonitrile plus various solvents; assay type: physicochemical; settings: 40 mg in MeCN:water = 0.5:0.2 mL
[2] = as above; assay type: physicochemical; settings: for Solubility, +100 uL solvent / Solubility, +200 uL water: +100 uL solvent
Procedure: Samples of DCI-NH2 (40 mg) were slurried in acetonitrile (0.25 ml) plus various solvents (0.05 ml).

[3] = 40 mg in acetonitrile 0.25 ml + NMP 0.05 ml
[4] = 40 mg in acetonitrile 0.25 ml + Nitromethane 0.05 ml
[5] = 40 mg in acetonitrile 0.25 ml + Propylene carbonate 0.05 ml
[6] = 40 mg in acetonitrile 0.25 ml + Sulfolane 0.05 ml

N#Cc1nc(N)[nH]c1C#N [DCI-NH2, 2-amino-1H-imidazole-4,5-dicarbonitrile]
No: Solubility [2, 4] | Solubility, +100 uL solvent [2, 4] | Solubility, +200 uL water [2, 4] | Solubility [2, 5] | Solubility, +100 uL solvent [2, 5] | Solubility [2, 6] | Solubility, +100 uL solvent [2, 6]
soluble: Solubility [1] | Solubility ([2]; 40 mg in acetonitrile 0.25 ml + Diglyme 0.05 ml) | Solubility ([2]; 40 mg in acetonitrile 0.25 ml + Dmso 0.05 ml) | Solubility, +100 uL solvent [2, 3] | Solubility, +200 uL water [2, 5] | Solubility, +200 uL water [2, 6]
partial: Solubility [2, 3]
